SMILES strings stand for the structures.

For one data set, the system named is carrot seed. To be noted: carrot seed treatment; cited from earlier work.
In data set [1] the test system is seeds of black spruce and jack pine. To be noted: seed soak at 0, 0.1, and 10 mg/l; cited from earlier work.
A further data set concerns carrot seeds. To be noted: seed soak: gibberellic acid 1 and 100 microgram/l, Ambiol 0.1 mg/l, glycinebetaine 100 mg/l; cited from earlier work.
For a further data set, the system named is Hybrid "A" corn seeds. Nature of the data set: Cold condition germination test (Test 3), Hybrid A corn seeds. It is filed as in vivo. The following applies: 10° C. The method, then:
(§1) This test was designed to measure the ability of seeds to germinate under adverse condition associated with high moisture and low temperature. Test 3-This test was conducted as described above in Test 1, except that the Petri dishes were incubated at a constant temperature of 10° C. Germination rate was determined as described above in Test 1. The test length continued for 30 days as the seeds are very slow to germinate under these conditions.

The next data set deals with corn seeds. To be noted: optimum (warm) conditions; any of the treatment levels tested (10-250 g/100 kg seed).
The next data set has as its system Hybrid "B" corn seeds. Nature of the data set: Cold condition germination test (Test 3), Hybrid B corn seeds. It is filed as in vivo. To be noted: 10° C. On the procedure:
as §1

The next data set relates to corn seed. The data set is described as follows: Field trials, emergence in cold conditions by seed treatment rate. To be noted: rates from 25 g/100 Kg to 250 g/100 Kg. It is filed as in vivo. The method, then:
(§2) Samples of seed having each type of treatment shown in Table 3 were planted in a controlled field trial in the upper Midwestern United States. Conservation tillage practices were adhered to and planting was accomplished during the first 10% of the crop that got planted in that area. During the trial, the plant density (number of plants per acre) and the corn yield (bu/acre) were measured.

The test system of data set [2] is Corn plantlets (Hybrid LH176rr1.4(LH224×LH226)). The data set is described as follows: Fresh weight accumulation after cold stress, corn plantlets. To be noted: seed treated with 50-100 g/100 kg; 6 days 18° C./12° C. It is filed as in vivo.
Data set [3] relates to Hybrid "B" (cold sensitive) corn. The following applies: 10° C. The method, then:
(§3) This test was designed to measure the emergence of plantlets from sprouted seeds under conditions that more closely resemble those found in field conditions.
(§4) For each sample batch of seed to be tested, 10 seeds were placed on ½″ of soil medium in a test tray and covered with an additional 2″ of soil medium. Three replications were prepared for each sample batch. The soil is moistened regularly and placed in the desired temperature regime. For a cold emergence test, trays are incubated at 10° C. with 16 hours of light. The tray is monitored daily over a 30-day period and a seed is counted as emerged when the spike breaks through the surface of the soil. Percent emergence is calculated as the number of emerged plantlets divided by the total number of seeds that were planted, times 100.
(§5) Corn hybrids “A” and “B”, as described above were treated with choline chloride at levels of 0, 10, 25 and 50 g/100 kg of seed. Each batch of seed was tested under 10° C. incubation conditions for emergence from a soil medium as described above.

For data set [4], the system named is Hybrid "A" (cold tolerant) corn. The following applies: 10° C.; 25 g/100 kg seed. The method, then:
as §3, §4, §5

For another data set, the system named is cotton seeds. The following applies: treated cotton seeds; cited from earlier work.
Data set [5] has as its system Soybean plantlets (Hybrid AG3303). The data set is described as follows: Fresh weight accumulation after cold shock, soybean plantlets. The format is in vivo. The following applies: seed treated with 10-20 g/100 kg; one week 22° C./13° C.; measured 10 days after return to greenhouse. On the procedure: Soybean plantlets (Hybrid AG3303, available from Asgrow Seed Co., St. Louis, Mo.) that were grown in a greenhouse maintained at day/night temperatures of 30° C. day and 25° C. night and with a 12 hour light period. The seed had been treated with different levels of glycinebetaine and were grown in optimum greenhouse conditions until they reached the first trifoliate stage of development. The plants were then moved from the greenhouse and subjected to 22° C./13° C. day/night temperatures for one week in a Conviron growth chamber. After one week the plants were returned to the greenhouse for “recovery” in optimal conditions. The fresh weight accumulation of the plantlets was then measured after 10 days following their return to the greenhouse.

The subject of data set [6] is Corn seeds (Hybrid LH176rr1.4(LH224×LH226)). The format is in vivo. To be noted: field trial. The method, then:
Corn seeds (Hybrid LH176rr1.4(LH224×LH226, available from Holden's Foundation Seeds, Inc., Williamsburg, Iowa) were treated with an antioxidant, alone or in combination with a pesticide (silthiofam, available from Monsanto Co., St. Louis, Mo., under the trade name […]®, 11.83% w/w silthiofam) according to the rates shown in Table 3.
as §2

With `Cc1nc2ccc(O)c(CN(C)C)c2[nH]1` [Ambiol, 2-methyl-4-[dimethylaminomethyl]-5-hydroxybenzimidazole], the germination in carrots entry with carrot seed is listed as “hastened germination”. Further, the membrane leakage result in [1] is “reduced membrane leakage”. The emergence of seedlings result in the data set on carrot seeds is given as “accelerated emergence of seedlings”.

Consider `C[N+](C)(C)CCO.[Cl-]` [choline chloride], for which the “50% germination earlier than untreated control” value in the data set on Hybrid "A" corn seeds (100 g/100 kg (best rate)) is recorded as “two days earlier”; in the data set with Hybrid "B" corn seeds (50 g/100 kg) it was “three days earlier”; in the data set with Hybrid "B" corn seeds (100 g/100 kg), “three days earlier”. Besides, in the data set with Hybrid "A" corn seeds (lower treatment rates, FIG. 1A / FIG. 2A), the “effect on germination rate” value is “substantially the same effect”. Moreover, in the data set with corn seeds, the “effect on germination under normal growing conditions” value is “no negative effects on germination”. The “emergence as a function of rate” value in the data set on corn seed is recorded as “emergence is found to increase with the increase of the rate”. In addition, in [2], the “fresh weight accumulation after cold shock vs untreated seed” value is “tendency for greater fresh weight accumulation”. In addition, the “days after seeding at which 50% germination was reached” value in data set [3] (10 g/100 kg seed) was 29 days. Moreover, in data set [3] (10 g/100 kg seed, study end 31 days), the “increase in germination time over untreated control” value is on record as “minimum of two days”. In addition, the “first evidence of emergence” value in [3] (10 g/100 kg treated seed) was found to be 21 days. In data set [4], the “50% emergence earlier than untreated control” value is recorded as “three days before the untreated control”. In data set [4], the “day on which 50% emergence was reached” value is 22 days.

As for `C=C1C[C@]23C[C@@]1(O)CC[C@H]2[C@@]12C=C[C@H](O)[C@@](C)(C(=O)O1)[C@H]2[C@@H]3C(=O)O` [gibberellic acid], the emergence of seedlings result with carrot seeds is recorded as “accelerated emergence of seedlings”.

`C[N+](C)(C)CC(=O)[O-]` [glycinebetaine]: in the data set on cotton seeds, the drought tolerance entry is “improvement in drought tolerance”. In addition, in the data set on carrot seed, the germination in carrots result is “hastened germination”. In addition, the “50% germination earlier than untreated control” value in the data set on Hybrid "B" corn seeds (50 g/100 kg) and in the data set with Hybrid "B" corn seeds (100 g/100 kg) was “three-day earlier germination” throughout. Further, the “fresh weight accumulation following the cold shock” value in data set [5] was “greater fresh weight accumulation”. For the same compound, in the data set with carrot seeds, the emergence of seedlings entry is reported as “accelerated emergence of seedlings”.

As to `C=CCNC(=O)c1c([Si](C)(C)C)sc(C)c1C` [silthiofam, 4,5-dimethyl-N-(2-propenyl)-2-(trimethylsilyl)-3-thiophenecarboxamide], the “corn yield improvement over untreated control” value in data set [6] (rates of Table 3 (silthiofam 25, choline chloride 250, glycinebetaine 50, BHA/BHT 10 g/100 kg seed), FIGS. 7B and 7C) is roughly 20%. Moreover, the “corn plant density (number of plants per acre)” value in data set [6] (rates of Table 3, FIG. 7A) is listed as “significant improvement in corn plant density”.
